Source: ChEMBL document CHEMBL4304782, “Antioxidant, Anti-inflammatory, and Neuroprotective Effects of Novel Vinyl Sulfonate Compounds as Nrf2 Activator” (ACS Med Chem Lett, 2019)

Molecular target: T1, Nuclear factor erythroid 2-related factor 2 (Homo sapiens, UniProt Q16236)
T1 sequence (Q16236 whole entry): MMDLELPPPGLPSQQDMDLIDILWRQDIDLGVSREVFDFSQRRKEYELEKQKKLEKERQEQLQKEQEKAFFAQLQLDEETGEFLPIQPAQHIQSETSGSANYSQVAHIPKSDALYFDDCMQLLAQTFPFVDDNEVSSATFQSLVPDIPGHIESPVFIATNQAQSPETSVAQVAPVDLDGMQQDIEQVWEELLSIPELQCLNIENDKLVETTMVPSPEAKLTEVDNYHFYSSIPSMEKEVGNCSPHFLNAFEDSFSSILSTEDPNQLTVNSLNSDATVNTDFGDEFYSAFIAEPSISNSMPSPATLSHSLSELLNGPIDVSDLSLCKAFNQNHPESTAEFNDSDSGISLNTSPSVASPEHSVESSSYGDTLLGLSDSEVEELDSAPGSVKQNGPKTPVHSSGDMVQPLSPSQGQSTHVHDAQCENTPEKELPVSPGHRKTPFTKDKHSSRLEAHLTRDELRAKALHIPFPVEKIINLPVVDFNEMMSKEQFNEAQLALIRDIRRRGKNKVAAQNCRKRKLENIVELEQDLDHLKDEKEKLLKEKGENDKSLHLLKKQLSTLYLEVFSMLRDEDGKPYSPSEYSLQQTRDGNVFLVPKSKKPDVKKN
Assay: Activation of ED-tagged Nrf2 in human U2OS cells co-expressing Keap1 assessed as induction of NRF2 translocation to nucleus after 6 hrs by beta-galactosidase based chemiluminescent assay
Type: cell-based

- EC50: 165 nM
SMILES: COc1cccc(OS(=O)(=O)/C=C/c2ccccc2Cl)c1
